Assay results: patent US9333209B2, “Compositions for increasing hair growth” (The Board of Trustees of the Leland Stanford Junior …, priority 2012, dated 2016)
Entries after “also recorded” stand apart in the source; their conditions may differ.

Experiments:
[1] = test system: bulge stem cells of Cav fx/-; K15 CrePR mice; experiment: Verapamil treatment of RU486 treated Cav fx/-; K15 CrePR mice; assay type: in vivo, mouse
Source text: Loss of function mutation of this channel entails a removal of exon 13 and 14 of Cav 1.2 gene (FIG. 1). […] Cav fx/- mice were crossed to K15CrePR animals to remove the pore region of the channel in the bulge stem cells. RU486 treatment of Cav fx/-; K15CrePR allowed the removal of the pore region. […] Loss of function mutation, which represents the closed state of this channel, results in the same phenotype as the open state of the channel.

[2] = test system: hair follicles of wild type mice; experiment: Verapamil treatment of wild type mice in first telogen
[3] = test system: bulge stem cells; experiment: microarray analysis and RT-PCR on Verapamil treated bulge cells; assay type: in vivo, mouse
Source text: Out of those, the gene Follistatin like 1 (Fstl1) stood out. Fstl1 is a secreted glycoprotein that inhibits BMP signaling in lung and ureter development.
There are other BMP inhibitors that are known to affect hair cycling.

[4] = test system: murine hair follicle cycling; details: small molecule screen of calcium blockers; mice
Procedure: To understand how calcium signaling controls hair follicle stem cell regulation, a screen for small molecules that affect murine hair follicle cycling was carried out. The compounds included a survey of different classes of cell permeable slow and fast channel blockers applied to the skin.
We performed a small molecule screen to find out if any of the available calcium blockers affected hair follicle cycling.

[5] = test system: hair cycling; experiment: subcutaneous injection of Fstl1 protein soaked beads, effect on hair cycling; assay type: in vivo, mouse; details: half dose (2 μg) soaked beads, Day 21-22 mice
Procedure: To understand the effect of Fstl1 on hair cycling, we subcutaneously injected two different doses of Fstl1 protein (4 μg and 2 μg) soaked beads to Day 21-22 mice. In 2 to 4 days, these mice went into anagen (n=8, FIG. 7D).

[6] = treated bulge stem cells vs control bulge stem cells

Which results are given for `COc1ccc(CCN(C)CCCC(C#N)(c2ccc(OC)c(OC)c2)C(C)C)cc1OC` (stereo not shown) [Verapamil, verapamil]?
anagen entry later than wild type littermates ([1]; drug treated Cav fx/-, K15 CrePR mutant mice, RU486 treated): 2 to 4 days; H and E staining of skin sections ([1]; treated mice vs control skin with telogen hair follicles): anagen hair follicles; H and E staining of skin sections ([2]; drug treated wild type mice vs telogen hair follicles in control mice): anagen hair follicles; early anagen (advance of anagen entry) ([2]; wild type mice treated between days 21 and 28 (first telogen), n=8): 5 to 7 days; Bambi expression ([3]; treated bulge stem cells): downregulated; Noggin expression ([3]; treated bulge stem cells): downregulated; Fstl1 expression (RT-PCR) [3, 6]: upregulated; Tmeff1 expression [3, 6]: does not change much

Which entry to anagen [4] does the source give for `COc1ccc([C@@H]2Sc3ccccc3N(CCN(C)C)C(=O)[C@@H]2OC(C)=O)cc1` [Diltiazem, diltiazem] here?
The entry to anagen was “showed the same results; also recorded: precocious entry into anagen”.

B1: Fstl1 protein: secreted glycoprotein that inhibits BMP signaling; deduced 308-amino acid protein with FS module (protein, UniProt Q12841 21-308, looked up)
Follistatin-related protein 1: EEELRSKSKICANVFCGAGRECAVTEKGEPTCLCIEQCKPHKRPVCGSNGKTYLNHCELHRDACLTGSKIQVDYDGHCKEKKSVSPSASPVVCYQSNRDELRRRIIQWLEAEIIPDGWFSKGSNYSEILDKYFKNFDNGDSRLDSSEFLKFVEQNETAINITTYPDQENNKLLRGLCVDALIELSDENADWKLSFQEFLKCLNPSFNPPEKKCALEDETYADGAETEVDCNRCVCACGNWVCTAMTCDGKNQKGAQTQTEEEMTRYVQELQKHQETAEKTKRVSTKEI
With B1 as the molecule, how does the entry to anagen [5] read?
The entry to anagen was “only partial entry to anagen”.
